Usually IC50 stands for the midpoint of a concentration-inhibition curve. A lower IC50 goes with higher potency.

Square brackets hold non-standard residues; d marks the D form. Peptide text beside a SMILES is read from it. * marks the point of attachment. Dolaproine = CO[C@@H]([C@@H]1CCCN1)[C@@H](C)C(=O)O; Dil = CC[C@H](C)[C@H](NC)[C@@H](CC(=O)O)OC; X1 = C[C@@H](N*)[C@@H](O)c1ccccc1; NMeV = CN[C@H](C(=O)O)C(C)C

The subject of one test is OVCAR8/LGR5 cells. Briefly: Growth rate inhibition assay (CCK8, 120 h exposure). The class given is cell-based, human.
For the next test, the system named is HEK293/LGR5 cells. The description is as above. The class given is cell-based, human.
The next test deals with OVCAR8/EV cells. The test is described as above. The following applies: OVCAR8/EV (LGR5-poor) cells. In kind it is cell-based, human.
The target in the next test is T1, LGR6 (Homo sapiens, UniProt Q9HBX8).
T1 sequence (Q9HBX8 25-967): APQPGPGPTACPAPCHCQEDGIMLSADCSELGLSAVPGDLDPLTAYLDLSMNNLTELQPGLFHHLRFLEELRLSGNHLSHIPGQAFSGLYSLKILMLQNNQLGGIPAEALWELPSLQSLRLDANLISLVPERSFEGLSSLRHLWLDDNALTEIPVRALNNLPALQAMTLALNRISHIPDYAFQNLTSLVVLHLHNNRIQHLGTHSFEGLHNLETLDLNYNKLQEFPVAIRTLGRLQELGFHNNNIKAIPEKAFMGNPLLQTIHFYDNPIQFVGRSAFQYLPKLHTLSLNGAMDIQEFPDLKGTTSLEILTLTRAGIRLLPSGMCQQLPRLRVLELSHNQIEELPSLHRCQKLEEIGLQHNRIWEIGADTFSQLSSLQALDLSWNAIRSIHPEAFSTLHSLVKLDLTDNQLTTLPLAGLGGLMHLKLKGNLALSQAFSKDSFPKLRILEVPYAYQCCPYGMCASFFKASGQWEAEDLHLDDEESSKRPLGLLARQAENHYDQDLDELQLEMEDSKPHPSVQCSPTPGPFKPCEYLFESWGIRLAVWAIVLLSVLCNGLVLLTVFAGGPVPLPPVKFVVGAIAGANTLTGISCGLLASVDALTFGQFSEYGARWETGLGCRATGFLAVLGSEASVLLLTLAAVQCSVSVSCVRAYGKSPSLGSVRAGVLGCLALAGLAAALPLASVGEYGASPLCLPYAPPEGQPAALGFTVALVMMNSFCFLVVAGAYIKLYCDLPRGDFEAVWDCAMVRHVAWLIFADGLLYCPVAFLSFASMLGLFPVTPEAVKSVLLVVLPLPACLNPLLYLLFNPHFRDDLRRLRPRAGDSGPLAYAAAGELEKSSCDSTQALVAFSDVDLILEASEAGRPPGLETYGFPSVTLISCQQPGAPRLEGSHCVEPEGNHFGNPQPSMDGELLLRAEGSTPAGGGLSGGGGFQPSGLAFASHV
The note with it: read-out: affinity; cited from earlier work.

The next test concerns the target T2, LGR5 (Homo sapiens, UniProt O75473).
T2 sequence (O75473 22-907): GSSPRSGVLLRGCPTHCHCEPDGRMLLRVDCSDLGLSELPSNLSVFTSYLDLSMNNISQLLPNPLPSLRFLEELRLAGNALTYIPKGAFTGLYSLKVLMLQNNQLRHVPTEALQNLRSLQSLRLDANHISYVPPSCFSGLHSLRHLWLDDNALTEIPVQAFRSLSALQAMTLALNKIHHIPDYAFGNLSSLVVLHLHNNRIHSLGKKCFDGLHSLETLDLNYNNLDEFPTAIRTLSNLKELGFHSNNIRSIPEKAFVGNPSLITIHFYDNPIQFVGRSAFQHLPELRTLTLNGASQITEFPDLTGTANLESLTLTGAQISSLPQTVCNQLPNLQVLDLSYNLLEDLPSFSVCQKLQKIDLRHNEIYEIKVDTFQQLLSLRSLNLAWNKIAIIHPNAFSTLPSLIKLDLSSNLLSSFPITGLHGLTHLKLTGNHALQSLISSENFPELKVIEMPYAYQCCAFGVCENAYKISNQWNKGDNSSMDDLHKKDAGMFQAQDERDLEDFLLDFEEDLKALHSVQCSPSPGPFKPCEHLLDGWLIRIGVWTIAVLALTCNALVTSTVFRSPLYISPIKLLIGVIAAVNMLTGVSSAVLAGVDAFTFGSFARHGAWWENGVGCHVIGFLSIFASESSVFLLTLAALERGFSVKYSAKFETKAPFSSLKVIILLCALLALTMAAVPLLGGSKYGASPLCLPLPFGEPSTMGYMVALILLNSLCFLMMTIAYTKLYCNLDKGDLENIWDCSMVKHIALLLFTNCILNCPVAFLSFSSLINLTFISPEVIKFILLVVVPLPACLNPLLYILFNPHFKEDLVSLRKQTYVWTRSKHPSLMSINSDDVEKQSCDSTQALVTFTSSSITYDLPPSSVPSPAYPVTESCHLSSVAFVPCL
The note with it: read-out: affinity; cited from earlier work.

Consider `CC[C@H](C)[C@@H]([C@@H](CC(=O)N1CCC[C@H]1[C@H](OC)[C@@H](C)C(=O)N[C@H](C)[C@@H](O)c1ccccc1)OC)N(C)C(=O)[C@@H](NC(=O)[C@@H](NC)C(C)C)C(C)C` [free MMAE, Monomethyl auristatin E, reference compound] (H-[NMeV]V[Dil][Dolaproine]-X1), for which the “OVCAR8/LGR5 cells more resistant than OVCAR8/EV cells” value in the test on OVCAR8/LGR5 cells is 1.5 fold. For the same compound, the IC50 in the test with OVCAR8/LGR5 cells (OVCAR8/LGR5 (LGR5-rich) cells, 120 h exposure, CCK8) is 129 nM; in the test with OVCAR8/EV cells it was 85 nM. In addition, the “HEK293/LGR5 cells more resistant than HEK293/EV cells” value in the test with HEK293/LGR5 cells stood at 1.6 fold.
As for “Fu1-Fu2 domain of RSPO1: receptor-binding Fu1-Fu2 domain of human RSPO1”, the Kd with LGR6 and in the test with LGR5 was roughly 3 nM throughout.

These data come from patent publication US20240269303A1, “CELL TARGETING CONSTRUCTS AND USES THEREOF” (Research Development Foundation, priority 2022, published 2024).
